According to the NIST ThermoML archive (doi:10.1021/je3001377):
± gives the expanded uncertainty stated by the source.

Details: 298.15 K; 101.33 kPa; Liquid; Cone and plate viscometry

Point of comparison: `CCCCn1cc[n+](CCCC)c1.CS(=O)(=O)[O-]` [1,3-dibutyl-1H-imidazolium methanesulfonate], viscosity 31.9 ± 2.4 mPa·s. Against it:
- CCn1cc[n+](C)c1.CS(=O)(=O)[O-] [1-ethyl-3-methylimidazolium methanesulfonate] — higher, 70.5 ± 2.7 mPa·s
- CCCCn1cc[n+](C)c1.CS(=O)(=O)[O-] [1-butyl-3-methylimidazolium methanesulfonate] — higher, 111 ± 14 mPa·s
- CS(=O)(=O)[O-].Cn1cc[n+](C)c1 [1,3-dimethyl-1H-imidazolium methanesulfonate] — within error, 32.9 ± 1.1 mPa·s
